{
  "source": "patent US11400101B2",
  "about": "“Treatment of allergic rhinitis using a combination of mometasone and olopatadine” (GLENMARK SPECIALTY S.A., priority 2013, dated 2022)",
  "key": {"[1]": {"tested_on": "seasonal allergic rhinitis (SAR)", "test": "Phase III clinical study in SAR, fall and mountain cedar season, Example 6", "settings": "human, in vivo", "text": "A total of 1,176 randomized subjects (˜294 subjects per treatment arm) were enrolled in the study.\nSubjects were randomized to treatment in a 1:1:1:1 ratio to the following four treatment arms, at multiple study sites.\n(§1) This study consisted of four visits to the study site. After the initial screening visit (Visit 1), subjects who met all study selection criteria were required to undergo a single-blind placebo run-in period for 7-10 days. Following the completion of the run-in period, eligible subjects meeting the randomization criteria were enrolled and randomized to one of the four treatment arms. Subjects were dispensed medication as per the randomization list. Randomized subjects were required to undergo a 2 week (14 days) treatment period as per the protocol to assess the efficacy and safety of the assigned treatment. Subjects were instructed to record the symptom scores in a symptom assessment diary.\n• Change from baseline in average AM and PM subject-reported 12-hour rTNSS (reflective TNSS) over the 14-day treatment period. […] The non-nasal symptoms are assessed in a similar manner to the ocular symptoms above. […]"}, "[2]": {"tested_on": "sneezing response", "test": "Sneezing response in ovalbumin induced rhinitis model (whole body plethysmography)", "type": "in vivo, guinea pigs", "settings": "for Inhibition of sneezing response (in words) / Number of Sneeze (0-50 min): MF 10 μg; for Percent inhibition of sneeze: MF 10 μg per animal, vs ovalbumin control; for Number of Sneeze (0-50 min): intranasal, ovalbumin challenged", "procedure": "Male Dunkin Hartley guinea pigs were actively sensitized with a subcutaneous injection of 1.5 mg of ovalbumin and 20 mg of aluminum hydroxide gel on days 0 and 7. Guinea pigs were sensitized intranasally with 2% ovalbumin from days 14-17. On day 28, the animals were challenged with 6% ovalbumin intranasally. Mometasone furoate 10 μg was given intranasally 24 hours and 1 hour prior to the final ovalbumin challenge. Olopatadine hydrochloride was given intranasally 1 hour before the final ovalbumin challenge. The dosing volume was 40 μl/animal. The saline control group and ovalbumin control group received vehicle (40 μl, 0.1% Tween 80 in distilled water). Sneezing response was determined by using whole body plethysmography (Buxco Research Systems, USA) for 50 minutes after final saline or ovalbumin challenge. The procedure in Example 1 was repeated except 120 μg of olopatadine hydrochloride (based on the equivalent weight of olopatadine free base) was used. The animal groups in Table 3 below were used during this experiment. Compound administration was performed as in Example 1, except the dosing volume was 60 μl/animal. The saline control group and ovalbumin control group received vehicle (60 μl, 0.1% Tween 80 in distilled water). In vivo evaluations were performed as in Example 1."}, "[3]": {"tested_on": "total cells and eosinophils in nasal lavage", "test": "Nasal lavage total cell count and eosinophils in ovalbumin induced rhinitis model", "type": "in vivo, guinea pigs", "settings": "for Inhibition of total cell and eosinophils in nasal lavage (in words): MF 10 μg; for % inhibition of eosinophils / Percent inhibition of total cell count / Eosinophils × 10^5/ml nasal lavage / Total cell count × 10^5/ml nasal lavage: MF 10 μg per animal", "procedure": "Male Dunkin Hartley guinea pigs were actively sensitized with a subcutaneous injection of 1.5 mg of ovalbumin and 20 mg of aluminum hydroxide gel on days 0 and 7. Guinea pigs were sensitized intranasally with 2% ovalbumin from days 14-17. On day 28, the animals were challenged with 6% ovalbumin intranasally. Mometasone furoate 10 μg was given intranasally 24 hours and 1 hour prior to the final ovalbumin challenge. Olopatadine hydrochloride was given intranasally 1 hour before the final ovalbumin challenge. The dosing volume was 40 μl/animal. The saline control group and ovalbumin control group received vehicle (40 μl, 0.1% Tween 80 in distilled water). Nasal lavage was performed at 4 hours after challenge of animals with saline or ovalbumin on day 28. Animals were anesthetized with an overdose of urethane, the trachea was exposed and nasal lavage was performed using 2 mL pre-warmed normal saline. The collected nasal lavage was taken for total cell count using a hemocytometer. The nasal lavage was centrifuged, and the cell pellet resuspended in 15 μL guinea pig serum and used for preparation of smears. Slides were stained with Leishman's stain and a differential cell count of 100 cells based on standard morphology was performed manually. The total number of eosinophils in each nasal lavage sample was calculated using the formula: [formula] Percent inhibition of eosinophils was calculated using the following formula: The procedure in Example 1 was repeated except 120 μg of olopatadine hydrochloride (based on the equivalent weight of olopatadine free base) was used. The animal groups in Table 3 below were used during this experiment. Compound administration was performed as in Example 1, except the dosing volume was 60 μl/animal. The saline control group and ovalbumin control group received vehicle (60 μl, 0.1% Tween 80 in distilled water). In vivo evaluations were performed as in Example 1."}, "[4]": {"test": "Plasma pharmacokinetics of TP-1 in the Phase III study, day 1 and day 8 (steady state)", "type": "in vivo, human", "settings": "human, in vivo", "text": "as §1, with “diary. They were also scheduled to have at least two blood samples for PK assessment during the treatment period.” for “diary.”\n• Change from baseline in average AM and PM subject-reported 12-hour rTNSS (reflective TNSS) over the 14-day treatment period. Secondary Endpoints • Change from baseline in average AM and PM subject-reported 12-hour iTNSS (instantaneous TNSS) over the 14 day treatment period. • Change from baseline in average AM and PM subject-reported 12-hour rTOSS (reflective TOSS) over the 14-day treatment period. • Onset of action for each treatment are assessed by comparing the change from baseline in post-treatment iTNSS between each active treatment and placebo at defined time points (prior to first dose (pre-dose), 15 min, 30 min, 45 min, 60 min, 90 min, 120 min, 150 min, 180 min, 210 min, and 240 min) after the first study treatment for 4 hours. • Change from baseline in the overall Rhinoconjunctivitis Quality of Life questionnaire (RQLQ)—Standardized Activities (RQLQ(S)) score on Day 15 (Visit 4) for the Full Analysis Set (FAS). Pharmacokinetic Endpoints • Plasma PK: Maximum plasma concentration (Cmax), time to attain Cmax (Tmax), and area under the plasma concentration-time curve over the dosing interval (AUCtau) will be estimated for mometasone furoate and olopatadine on Day 1 and Day 8 based on the pharmacokinetic analysis set (PKAS). Tertiary Efficacy Endpoints Nasal Symptoms: • Change from baseline in AM subject-reported rTNSS over the 14-day treatment period. • Change from baseline in AM subject-reported iTNSS over the 14-day treatment period. • Change from baseline in PM subject-reported rTNSS over the 14-day treatment period. • Change from baseline in PM subject-reported iTNSS over the 14-day treatment period. • Change from baseline in subject-reported reflective individual nasal symptoms over the 14-day treatment period (AM, PM and average of AM and PM). • Change from baseline in subject-reported instantaneous individual nasal symptoms over the 14-day treatment period (AM, PM and average of AM and PM). • Change from baseline in average AM and PM subject-reported rTNSS and iTNSS for each day. • Change from baseline in AM subject-reported rTNSS and iTNSS for each day. • Change from baseline in PM subject-reported rTNSS and iTNSS for each day. […]"}, "[5]": {"test": "Pharmacokinetics of olopatadine, single-dose three-period cross-over study, Example 12", "type": "in vivo, human", "settings": "single dose nasal spray", "procedure": "The pharmacokinetics of olopatadine in a fixed dose combination of mometasone furoate and olopatadine hydrochloride nasal spray was evaluated in a clinical trial. The clinical trial was a randomized, single-center, single-dose, open-label, three-period, six-sequence, cross-over study to evaluate three treatments administered as a nasal spray. The three treatments included a combination of mometasone furoate and olopatadine hydrochloride nasal spray, olopatadine hydrochloride nasal spray and […]® nasal spray. […] The study consisted of a screening visit, 3 single-dose treatment periods with washout periods of 7 to 14 days between dosing in each treatment period, an early withdrawal visit if applicable, and a follow-up telephone call (or visit) 1 to 7 days after completing the third treatment period. A total of 30 subjects were randomized to 1 of 6 treatment sequences and received at least 1 dose of study drug. All 30 subjects were included in the safety analysis set and the pharmacokinetic subset. All but 2 subjects completed the study per protocol."}, "[6]": {"test": "Crystallization of olopatadine hydrochloride in the fixed dose combination aqueous suspension versus pH", "type": "physicochemical"}, "[7]": {"settings": "Example 1, OH 50 μg, 4 hours after challenge"}},
  "data": [
    {"compound": "Mometasone Furoate Monohydrate and Olopatadine Hydrochloride Nasal Spray (25 mcg+600 mcg) [TP-1]", "values": [
      {"measurement": "Urinary tract infection reported as adverse event", "setting": "[1]", "result": 1, "unit": "%"}
    ]},
    {"compound": "CN(C)CC/C=C1/c2ccccc2COc2ccc(CC(=O)O)cc21.Cl", "note": "[Olopatadine Hydrochloride, (Z)-11-[3-(dimethylamino)propylidene]-6,11-dihydrodibenz[b,e]oxepin-2-acetic acid hydrochloride]", "values": [
      {"measurement": "Inhibition of sneezing response (in words)", "setting": "[2]; Example 1, OH 50 μg", "result": "did not show significant inhibition"},
      {"measurement": "Percent inhibition of sneeze", "setting": "[2]; Example 1, OH 50 μg", "result": 45, "unit": "%"},
      {"measurement": "Number of Sneeze (0-50 min)", "setting": "[2]; Example 1, per animal: OH 50 μg, combination 50 (OH) & 10 (MF)", "result": 12.29},
      {"measurement": "Inhibition of sneezing response (in words)", "setting": "[2]; Example 2, OH 120 μg", "result": "did not show significant inhibition"},
      {"measurement": "Percent inhibition of sneeze", "setting": "[2]; Example 2, OH 120 μg", "result": 51, "unit": "%"},
      {"measurement": "Number of Sneeze (0-50 min)", "setting": "[2]; Example 2, per animal: OH 120 μg, combination 120 (OH) & 10 (MF)", "result": 17.90},
      {"measurement": "Inhibition of total cell and eosinophils in nasal lavage (in words)", "setting": "[3]; Example 1, OH 50 μg", "result": "did not show significant inhibition"},
      {"measurement": "% inhibition of eosinophils", "setting": "[3]; Example 1, OH 50 μg", "result": 2, "unit": "%"},
      {"measurement": "Percent inhibition of total cell count", "setting": "[3]; Example 1, OH 50 μg", "result": 3, "unit": "%"},
      {"measurement": "Eosinophils × 10^5/ml nasal lavage", "setting": "[3]; [7]", "result": "3.64 × 10^5/ml"},
      {"measurement": "Total cell count × 10^5/ml nasal lavage", "setting": "[3]; [7]", "result": "6.63 × 10^5/ml"},
      {"measurement": "Inhibition of total cell and eosinophils in nasal lavage (in words)", "setting": "[3]; Example 2, OH 120 μg", "result": "did not show significant inhibition"},
      {"measurement": "% inhibition of eosinophils", "setting": "[3]; Example 2, OH 120 μg", "result": 8, "unit": "%"},
      {"measurement": "Eosinophils × 10^5/ml nasal lavage", "setting": "[3]; Example 2, OH 120 μg", "result": "3.08 × 10^5/ml"},
      {"measurement": "Percent inhibition of total cell count", "setting": "[3]; Example 2, OH 120 μg", "result": 17, "unit": "%"},
      {"measurement": "Total cell count × 10^5/ml nasal lavage", "setting": "[3]; Example 2, OH 120 μg", "result": "5.83 × 10^5/ml"},
      {"measurement": "Olopatadine Tmax, Median", "setting": "[4]", "result": 1.00, "unit": "h"},
      {"measurement": "Last time point until which quantifiable concentrations were observed", "setting": "[5]", "result": 48, "unit": "h"},
      {"measurement": "State of olopatadine hydrochloride in the fixed dose combination aqueous suspension", "setting": "[6]; pH of 5 to 5.5", "result": "crystallizes out"},
      {"measurement": "State of olopatadine hydrochloride in the aqueous suspension", "setting": "[6]; pH of about 3.3 to about 4.1", "result": "remains dissolved"}
    ]}
  ]
}
